Test results published in article PMC12456010, “Structural constraints prevent a bat norovirus from binding to histo-blood group antigen co-factors” (Journal of Virology, 2025).

Assays:
GX P domain (NPIH26) = biological target: T1, GX P domain (NPIH26) (Bat norovirus, UniProt A0A2S1TZT6); test: X-ray co-crystal structure, […] A; format: binding; conditions: co-crystallized with 30-60 molar excess; two fucose molecules per P domain dimer; site E332, H334, E349, T433 of one monomer; pH 6.5
T1 construct: gene ORF2; protruding (P) domain of the capsid protein, dimer

GII.27 P domain = biological target: T2, GII.27 P domain (Norovirus GII, UniProt A0A2H4Y8Z8); test: X-ray co-crystal structure, […] A; format: binding; conditions: co-crystallized with 30-60 molar excess; one molecule per dimer, site at dimer interface: N354, R355, D384 of one monomer, K444, G446, Y447 of the other
T2 construct: protruding (P) domain of the capsid protein, dimer

Compound	X-ray co-crystal structure, 1.55 A (GX P domain (NPIH26))	X-ray co-crystal structure, 1.76 A (GII.27 P domain)
C[C@@H]1OC(O)[C@@H](O)[C@H](O)[C@@H]1O (some centres unmarked) [FUC, fucose]	The GX P domain held the fucose molecules with six direct hydrogen bonds	–
CC(=O)N[C@H]1[C@@H](O[C@H]2[C@@H](O)[C@@H](CO)OC(O)[C@@H]2O[C@@H]2O[C@@H](C)[C@@H](O)[C@@H](O)[C@@H]2O)O[C@H](CO)[C@H](O)[C@@H]1O (stereo partly drawn) [A-trisaccharide, α-L-fucose-(1-2)-α-D-galactose-(3-1)-2-N-acetyl-α-D-galactosamine]	–	a single A-trisaccharide molecule bound to the P domain dimer
